Structures are written as SMILES.

In one test the target is 5-HT2B receptor (Homo sapiens (Human), UniProt P41595). Briefly: HTRF IP-One antagonist assay, 5-HT2B. As to conditions: HEK293 cells stably expressing recombinant human receptor; IP accumulation with 80 nM 5-HT. It is filed as cell-based. The procedure: (§1) HEK293 cells stably expressing 5-HT2 receptors were generated using standard procedures. Cells were dilution cloned and clonal cell lines stably expressing the receptors at low levels were selected for pharmacology studies. In radioligand binding studies using a variety of radiolabeled probes, receptor densities in the 2A, 2B and 2C cell lines were estimated to be 50-70, 150-200, and 10-20 fmol/mg, respectively.
5-HT2B receptor, sequence (P41595 whole entry): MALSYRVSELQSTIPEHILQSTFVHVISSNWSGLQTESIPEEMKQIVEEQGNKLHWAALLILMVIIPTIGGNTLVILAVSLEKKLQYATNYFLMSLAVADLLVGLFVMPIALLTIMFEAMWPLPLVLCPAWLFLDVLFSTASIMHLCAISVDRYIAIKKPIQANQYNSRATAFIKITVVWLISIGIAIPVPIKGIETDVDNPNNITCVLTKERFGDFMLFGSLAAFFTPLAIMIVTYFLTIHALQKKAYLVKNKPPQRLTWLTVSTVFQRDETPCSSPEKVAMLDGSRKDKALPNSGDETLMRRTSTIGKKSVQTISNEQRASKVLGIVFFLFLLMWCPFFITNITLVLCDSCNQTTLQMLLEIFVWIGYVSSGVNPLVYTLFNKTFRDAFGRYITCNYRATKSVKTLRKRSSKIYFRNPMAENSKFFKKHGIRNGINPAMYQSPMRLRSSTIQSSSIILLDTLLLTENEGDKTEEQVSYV
(§2) Inositol phosphate accumulation assays were performed using the HTRF IP-One assay system developed by Cisbio and generally followed the manufacturer's instructions. Briefly, HEK293 cells stably expressing recombinant human receptors were harvested and resuspended in phenol-red free OptiMEM (ThermoFisher), plated into 384-well assay plates (Perkin Elmer, ProxiPlate-Plus® Cat #6008280) at 10,000 cells/well in a volume of 10 μL/well, and incubated overnight at 37° C., 5% CO2. Test compounds were solubilized and serially diluted in DMSO, and then diluted into Assay Buffer (Tris HCl 20 mM, NaCl 150 mM, LiCl 40 mM, pargyline 25 μM, pH 8) containing 80 nM 5-HT. Test compounds were added to the cells (4 μL/well addition, maximal final assay concentration typically 10 μM) and plates, incubated for 2 hrs at 37° C./5% CO2 and then removed from the incubator and allowed to cool to room temperature for 30 minutes prior to addition of IP-One detection reagents. IP-One detection reagents (6 μL/well) were added and plates incubated for 1 hr at room temperature before reading on an HTRF compatible reader such as a Perkin Elmer EnVision® or BMG PheraStar®. Dose-response experiments utilized 10-point curves, typically starting at 10 μM, with 5-fold serial dilutions. Experiments were performed with triplicate data points and independent replicate experiments were performed to ensure data consistency.
In general terms: In TR-FRET formats the signal depends on donor and acceptor labels being close together.

Test [1] addresses T1, 5-HT2A receptor (Homo sapiens (Human), UniProt P28223). Briefly: Radioligand binding assay ([3H]5-HT competition), 5-HT2A. As to conditions: [3H]5-HT radioligand, membranes of HEK293 cells expressing recombinant 5-HT2A; Ki from IC50 by Cheng-Prusoff; read-out: 5-HT2A serotonin binding Ki value.
The target in test [2] is T1, 5-HT2A receptor. Briefly: HTRF IP-One antagonist assay, 5-HT2A. It is filed as cell-based. As to conditions: HEK293 cells stably expressing recombinant human receptor; IP accumulation with 80 nM 5-HT. The procedure:
as §1, §2

The target of another test is 5-HT2C receptor (Homo sapiens (Human), UniProt P28335). The test can be described thus: HTRF IP-One antagonist assay, 5-HT2C. The format is cell-based. As to conditions: HEK293 cells stably expressing recombinant human receptor; IP accumulation with 80 nM 5-HT. How it is done: as §1, §2
5-HT2C receptor, sequence (P28335 33-458): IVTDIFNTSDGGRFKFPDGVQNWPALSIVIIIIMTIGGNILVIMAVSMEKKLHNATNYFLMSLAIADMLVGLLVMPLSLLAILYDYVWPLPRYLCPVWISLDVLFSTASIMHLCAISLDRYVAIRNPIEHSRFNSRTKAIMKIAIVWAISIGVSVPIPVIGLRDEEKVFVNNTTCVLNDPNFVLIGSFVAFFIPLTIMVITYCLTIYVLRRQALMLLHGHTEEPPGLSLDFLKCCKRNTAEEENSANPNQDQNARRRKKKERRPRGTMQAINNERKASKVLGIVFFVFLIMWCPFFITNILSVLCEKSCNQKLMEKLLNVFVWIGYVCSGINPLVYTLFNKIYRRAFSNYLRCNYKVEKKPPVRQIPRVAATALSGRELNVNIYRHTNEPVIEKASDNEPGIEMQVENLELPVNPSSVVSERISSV

T1 sequence (P28223 whole entry): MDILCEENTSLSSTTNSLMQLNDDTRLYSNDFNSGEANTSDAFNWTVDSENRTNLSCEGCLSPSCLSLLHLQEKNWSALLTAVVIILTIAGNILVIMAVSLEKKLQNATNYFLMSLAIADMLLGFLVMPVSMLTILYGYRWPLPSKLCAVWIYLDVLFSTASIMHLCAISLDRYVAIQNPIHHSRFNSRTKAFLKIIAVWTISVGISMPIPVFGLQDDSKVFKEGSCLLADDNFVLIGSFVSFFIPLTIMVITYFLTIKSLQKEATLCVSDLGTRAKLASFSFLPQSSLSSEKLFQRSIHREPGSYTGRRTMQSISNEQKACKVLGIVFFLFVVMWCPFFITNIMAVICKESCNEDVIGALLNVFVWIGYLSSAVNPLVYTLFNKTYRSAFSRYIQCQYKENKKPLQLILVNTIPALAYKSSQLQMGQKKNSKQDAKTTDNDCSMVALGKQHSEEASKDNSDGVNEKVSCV

With `Cc1ncoc1C(=O)Nc1ccc(OC[C@H]2CCCCN2)c(-c2c(C)noc2C)c1` [Compound 196, (R)—N-(3-(3,5-dimethylisoxazol-4-yl)-4-(piperidin-2-ylmethoxy)phenyl)-4-methyloxazole-5-carboxamide], the results for the IC50 on 5-HT2B receptor, on 5-HT2A receptor [2] and on 5-HT2C receptor were no less than 100000 nM, 45 nM and no less than 100000 nM, respectively. The Ki (in general, the dissociation constant of the complex between target and ligand, obtained from inhibition or displacement) on 5-HT2A receptor [1] amounted to 10.2 nM.
Take `COCCNCCOc1ccc(NC(=O)C2CC2)cc1-c1c(C)noc1C` [Compound 197, N-[3-(3,5-dimethylisoxazol-4-yl)-4-[2-(2-methoxyethylamino)ethoxy]phenyl]cyclopropanecarboxamide]: the IC50 (as a rule, the concentration needed to halve the response being measured) was no less than 100000 nM on 5-HT2B receptor, 4.95 nM on 5-HT2A receptor [2] and no less than 100000 nM at 5-HT2C receptor. For the same molecule, the Ki at 5-HT2A receptor [1] is 1.08 nM.
In the case of `CC(=N)NCCOc1ccc(NC(=O)C2CC2)cc1-c1c(C)noc1C` [Compound 198, N-(4-(2-acetimidamidoethoxy)-3-(3,5-dimethylisoxazol-4-yl)phenyl)cyclopropanecarboxamide], the IC50 is no less than 100000 nM at 5-HT2B receptor, 22.8 nM at 5-HT2A receptor [2] and 3730 nM at 5-HT2C receptor. For the same molecule, the Ki on 5-HT2A receptor [1] was determined as 5.39 nM.
The corresponding values for `Cc1noc(C)c1-c1cc(NC(=O)c2ccccc2)ccc1OC[C@H]1CCCCN1` [Compound 218, (R)—N-(3-(3,5-dimethylisoxazol-4-yl)-4-(piperidin-2-ylmethoxy)phenyl)benzamide] are no less than 100000 nM, 21.8 nM, no less than 100000 nM and 4.85 nM.
The corresponding values for `Cc1noc(C)c1-c1cc(NC(=O)c2ccc(F)cc2)ccc1OC[C@H]1CCCCN1` [Compound 219, (R)—N-(3-(3,5-dimethylisoxazol-4-yl)-4-(piperidin-2-ylmethoxy)phenyl)-4-fluorobenzamide] are no less than 100000 nM, 10.4 nM, no less than 100000 nM and 2.92 nM.
Turning to `COc1cccc(C(=O)Nc2ccc(OC[C@H]3CCCCN3)c(-c3c(C)noc3C)c2)c1` [Compound 220, (R)—N-(3-(3,5-dimethylisoxazol-4-yl)-4-(piperidin-2-ylmethoxy)phenyl)-3-methoxybenzamide], the IC50 at 5-HT2B receptor was no less than 100000 nM; at 5-HT2A receptor [2], 2.58 nM; at 5-HT2C receptor, no less than 100000 nM. For the same molecule, the Ki at 5-HT2A receptor [1] was determined as 0.907 nM.
With `Cc1noc(C)c1-c1cc(NC(=O)Cc2ccccc2)ccc1OC[C@H]1CCCCN1` [Compound 221, (R)—N-(3-(3,5-dimethylisoxazol-4-yl)-4-(piperidin-2-ylmethoxy)phenyl)-2-phenylacetamide], the IC50 on 5-HT2B receptor is no less than 100000 nM; on 5-HT2A receptor [2], 17.8 nM; at 5-HT2C receptor, no less than 100000 nM. Besides, on 5-HT2A receptor [1], the Ki came to 4.22 nM.
Turning to `COc1cccc(CC(=O)Nc2ccc(OC[C@H]3CCCCN3)c(-c3c(C)noc3C)c2)c1` [Compound 222, (R)—N-(3-(3,5-dimethylisoxazol-4-yl)-4-(piperidin-2-ylmethoxy)phenyl)-2-(3-methoxyphenyl)acetamide], the results for the concentration for half-maximal inhibition (IC50) on 5-HT2B receptor, on 5-HT2A receptor [2] and on 5-HT2C receptor were no less than 100000 nM, 53.4 nM and no less than 100000 nM, respectively. At 5-HT2A receptor [1], the Ki stood at 4.68 nM.
For the molecule `Cc1noc(C)c1-c1cc(NC(=O)Cc2cccc(F)c2)ccc1OC[C@H]1CCCCN1` [Compound 223, (R)—N-(3-(3,5-dimethylisoxazol-4-yl)-4-(piperidin-2-ylmethoxy)phenyl)-2-(3-fluorophenyl)acetamide], the results for the IC50 on 5-HT2B receptor, at 5-HT2A receptor [2] and at 5-HT2C receptor were no less than 100000 nM, 14.7 nM and no less than 100000 nM, respectively. For the same molecule, the Ki at 5-HT2A receptor [1] stood at 1.69 nM.
On to `Cc1noc(C)c1-c1cc(NC(=O)Cc2cncc(F)c2)ccc1OC[C@H]1CCCCN1` [Compound 226, (R)—N-(3-(3,5-dimethylisoxazol-4-yl)-4-(piperidin-2-ylmethoxy)phenyl)-2-(5-fluoropyridin-3-yl)acetamide], for which the concentration for half-maximal inhibition (IC50) on 5-HT2B receptor is no less than 100000 nM; at 5-HT2A receptor [2], 10.9 nM; on 5-HT2C receptor, no less than 100000 nM. Also, the Ki on 5-HT2A receptor [1] was found to be 10.4 nM.
In the case of `CCOC1CC1C(=O)Nc1ccc(OC[C@H]2CCCCN2)c(-c2c(C)noc2C)c1` (stereo partly drawn) [Compound 229, N-(3-(3,5-dimethylisoxazol-4-yl)-4-(((R)-piperidin-2-yl)methoxy)phenyl)-2-ethoxycyclopropane-1-carboxamide], the figures for the IC50 on 5-HT2B receptor, at 5-HT2A receptor [2] and on 5-HT2C receptor were no less than 100000 nM, 20.7 nM and no less than 100000 nM, respectively. Besides, the Ki on 5-HT2A receptor [1] amounted to 4.72 nM.
Consider `Cc1nonc1C(=O)Nc1ccc(OC[C@H]2CCCCN2)c(-c2c(C)noc2C)c1` [Compound 232, (R)—N-(3-(3,5-dimethylisoxazol-4-yl)-4-(piperidin-2-ylmethoxy)phenyl)-4-methyl-1,2,5-oxadiazole-3-carboxamide], for which the IC50 at 5-HT2B receptor was no less than 100000 nM; on 5-HT2A receptor [2], 24.8 nM; on 5-HT2C receptor it was no less than 100000 nM. The inhibitory constant (Ki) on 5-HT2A receptor [1] was determined as 3.86 nM.
Regarding `Cc1noc(C)c1-c1cc(NC(=O)Cc2ccns2)ccc1OC[C@H]1CCCCN1` [Compound 233, (R)—N-(3-(3,5-dimethylisoxazol-4-yl)-4-(piperidin-2-ylmethoxy)phenyl)-2-(isothiazol-5-yl)acetamide], the IC50 at 5-HT2B receptor was no less than 100000 nM; at 5-HT2A receptor [2], 9.5 nM; at 5-HT2C receptor, no less than 100000 nM. On 5-HT2A receptor [1], the Ki turned out to be 1.64 nM.
Regarding `Cc1noc(C)c1-c1cc(NC(=O)Cc2cnsc2)ccc1OC[C@H]1CCCCN1` [Compound 234, (R)—N-(3-(3,5-dimethylisoxazol-4-yl)-4-(piperidin-2-ylmethoxy)phenyl)-2-(isothiazol-4-yl)acetamide], the IC50 on 5-HT2B receptor was no less than 100000 nM; on 5-HT2A receptor [2], 2.39 nM; at 5-HT2C receptor, no less than 100000 nM. Also, the Ki at 5-HT2A receptor [1] was found to be 0.657 nM.
Consider `Cc1noc(C)c1-c1cc(NC(=O)C2(F)CC2)ccc1O[C@@H]1CCNC1` [Compound 238, (R)—N-(3-(3,5-dimethylisoxazol-4-yl)-4-(pyrrolidin-3-yloxy)phenyl)-1-fluorocyclopropane-1-carboxamide], for which the IC50 on 5-HT2B receptor was no less than 100000 nM; at 5-HT2A receptor [2], 45.2 nM; on 5-HT2C receptor, no less than 100000 nM. Moreover, the Ki at 5-HT2A receptor [1] turned out to be 3.61 nM.
In the case of `Cc1noc(C)c1-c1cc(NC(=O)c2c(F)cnn2C)ccc1OC1CNC1` [Compound 240, N-(4-(azetidin-3-yloxy)-3-(3,5-dimethylisoxazol-4-yl)phenyl)-4-fluoro-1-methyl-1H-pyrazole-5-carboxamide], the IC50 on 5-HT2B receptor is no less than 100000 nM; at 5-HT2A receptor [2] it was 17.8 nM; at 5-HT2C receptor, no less than 100000 nM. In addition, the Ki on 5-HT2A receptor [1] was determined as 1.36 nM.
For the molecule `Cc1noc(C)c1-c1cc(NC(=O)c2ccccc2)ccc1OC1CNC1` [Compound 241, N-(4-(azetidin-3-yloxy)-3-(3,5-dimethylisoxazol-4-yl)phenyl)benzamide], the IC50 at 5-HT2B receptor is no less than 100000 nM; at 5-HT2A receptor [2], 35 nM; on 5-HT2C receptor, no less than 100000 nM. The Ki at 5-HT2A receptor [1] was found to be 6.94 nM.
As to `Cc1noc(C)c1-c1cc(NC(=O)c2ccc(F)cc2)ccc1OC1CNC1` [Compound 242, N-(4-(azetidin-3-yloxy)-3-(3,5-dimethylisoxazol-4-yl)phenyl)-4-fluorobenzamide], the results for the IC50 on 5-HT2B receptor, at 5-HT2A receptor [2] and on 5-HT2C receptor were 3390 nM, 44.2 nM and 4920 nM, respectively. For the same molecule, the Ki on 5-HT2A receptor [1] turned out to be 2.1 nM.
The matching figures for `Cc1noc(C)c1-c1cc(NC(=O)c2cccc(F)c2)ccc1OC1CNC1` [Compound 243, N-(4-(azetidin-3-yloxy)-3-(3,5-dimethylisoxazol-4-yl)phenyl)-3-fluorobenzamide]: no less than 100000 nM, 16.5 nM, 6210 nM and 1.07 nM.
The corresponding values for `COc1cccc(C(=O)Nc2ccc(OC3CNC3)c(-c3c(C)noc3C)c2)c1` [Compound 244, N-(4-(azetidin-3-yloxy)-3-(3,5-dimethylisoxazol-4-yl)phenyl)-3-methoxybenzamide] are no less than 100000 nM, 19 nM, no less than 100000 nM and 0.85 nM.
On to `Cc1noc(C)c1-c1cc(NC(=O)C2(F)CC2)ccc1OC1CNC1` [Compound 245, N-(4-(azetidin-3-yloxy)-3-(3,5-dimethylisoxazol-4-yl)phenyl)-1-fluorocyclopropane-1-carboxamide], for which the IC50 on 5-HT2B receptor was no less than 100000 nM; on 5-HT2A receptor [2], 37.9 nM; on 5-HT2C receptor, no less than 100000 nM. Besides, the Ki on 5-HT2A receptor [1] was found to be 2.05 nM.

(Values after patent publication US20240376090A1, “ISOXAZOLE DERIVATIVES AS MODULATORS OF THE 5-HT2A SEROTONIN RECEPTOR USEFUL FOR THE TREATMENT OF DISORDERED RELATED THERETO” (Arena Pharmaceuticals, Inc., priority 2020, published 2024).)
